The source of these data is PubChem BioAssay (NCI).

Assay in all cases: NCI tumour cell line growth inhibition, 48 h
For test [1], the system named is HT29 colon.
Test [2] has as its system LOX IMVI melanoma.
In test [3] the test system is OVCAR-8 ovarian.
The subject of test [4] is CCRF-CEM leukemia.
The test system of test [5] is NCI/ADR-RES ovarian.
The subject of test [6] is ACHN renal.
Test [7] concerns CAKI-1 renal.
Test [8] concerns MALME-3M melanoma.
The test system of test [9] is IGROV1 ovarian.
Test [10] has as its system RPMI-8226 leukemia.

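Assay format: 96-well plates, 48-hour exposure. Here, GI50 denotes the concentration required for 50% inhibition of growth. TGI: concentration producing complete growth inhibition.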 Where a SMILES comes first, the peptide text is derived from it. The star is where a group is joined. Boc = CC(C)(C)OC(=O)*

In the case of `Cc1ccc(S(=O)(=O)N2CCCSCC2)cc1`, the TGI in test [1], in test [2], in [3], in [4], in test [5] and in [6] was greater than 100 µM each time.
On to `Cc1ccc2c(c1)-c1nc(N)c(C#N)c(-c3ccccc3)c1CCS2(=O)=O`, for which the TGI was greater than 100 µM in test [1]; greater than 100 µM in test [2]; 56.5 µM in test [3]; greater than 100 µM in [7]; greater than 100 µM in test [5]; greater than 100 µM in [6]. The TGI in test [8] is 87.3 µM; in [9], greater than 100 µM; in test [10], greater than 100 µM.
On to `COC(=O)C(Cc1c[nH]c2ccccc12)NC(=O)C(Cc1c[nH]c2ccccc12)NC(=O)C(Cc1c[nH]c2ccccc12)NC(=O)C(Cc1c[nH]c2ccccc12)NC(=O)C(Cc1c[nH]c2ccccc12)NC(=O)C(Cc1c[nH]c2ccccc12)NC(=O)C(Cc1c[nH]c2ccccc12)NC(=O)C(Cc1c[nH]c2ccccc12)NC(=O)OC(C)(C)C` (stereo not drawn) (Boc-WWWWWWWW-OMe; configuration not given here), for which the TGI in [1] is greater than 100 µM; in test [2] it was greater than 100 µM; in test [3] it was greater than 100 µM; in test [7], greater than 100 µM; in test [4], 96.2 µM; in [6] it was greater than 100 µM. For the same molecule, the TGI in test [8], in test [9] and in [10] was greater than 100 µM each time.
Take `Cc1cn(CC2=NCC(C)N2)c(=O)[nH]c1=O` (stereo not drawn): the TGI in test [1], in [2], in test [3], in [5], in [6] and in test [8] was greater than 100 µM throughout. Moreover, the TGI in [9] and in [10] was greater than 100 µM in each case.
Turning to `COCN1C(=O)[C@@H]2CCCN2C(=O)c2cc(N)ccc21`, the TGI in test [1], in test [2], in test [3], in test [7], in test [5] and in test [6] was greater than 100 µM each time. Besides, the TGI in [8] and in test [9] was greater than 100 µM in each case.
As to `COc1cc(/C=c2\sc3n(c2=O)C(c2ccc(Cl)cc2)C2=C(CCCC2C)N=3)cc(OC)c1OC` (stereo not drawn), the TGI in [1], in test [2], in test [3], in test [7], in [4] and in [6] was greater than 100 µM each time. The TGI in test [9] and in [10] was greater than 100 µM throughout.
For the molecule `N/C(=N\N=C\c1ccc2c(c1)OCCO2)NO`, the TGI was 33.6 µM in test [1]; greater than 72.7 µM in [2]; greater than 76.6 µM in [3]; greater than 100 µM in [7]; greater than 100 µM in test [4]; greater than 55.1 µM in test [5]. Further, the TGI in [9] was greater than 100 µM; in test [10], greater than 64.4 µM.
`CCOC(=O)NC(Nc1ccc(C(=O)OCC)cc1)(C(F)(F)F)C(F)(F)F`: the TGI in test [1], in test [2], in test [3], in [4], in [5] and in [6] was greater than 100 µM throughout. Also, the TGI in [8], in test [9] and in test [10] was greater than 100 µM in each case.
Regarding `O=C(O)CN1C(=O)C(Cc2ccc(O)cc2)N=C(c2cccc(O)c2)c2ccccc21` (stereo not drawn), the TGI in test [1], in test [2], in test [3], in [6], in test [8] and in test [9] was greater than 100 µM each time. This molecule also showed a TGI in test [10] greater than 100 µM.
As to `NC(=S)N/N=C\c1nccc2ccccc12`, the TGI in test [1] was 30.9 µM; in [2] it was 11.8 µM; in test [3], 0.925 µM; in [5], 1.13 µM; in test [6], 0.317 µM; in test [8], greater than 23.1 µM. Also, the TGI is 17.4 µM in test [9] and 4.72 µM in test [10].
With `COc1ccc(-c2cc3[nH]nc(N)c3c(=O)o2)cc1`, the TGI in test [1], in [2], in [3], in [7], in test [4] and in test [6] was greater than 100 µM each time. The TGI in test [8], in test [9] and in test [10] was greater than 100 µM each time.
`C=CCc1cccc2cc(C(=O)Nc3ccccn3)c(=N)oc12`: the TGI in test [1], in [2], in test [3], in [7], in [4] and in test [5] was greater than 100 µM each time. The TGI in test [6], in test [9] and in test [10] was greater than 100 µM each time.
`COc1ccc(/C=C2\CCC(C)C3=C2N=c2s/c(=C/c4cccc(Br)c4)c(=O)n2C3c2ccc(OC)c(OC)c2)cc1OC` (stereo not drawn): the TGI in test [1], in test [2], in test [3], in test [7], in [4] and in test [6] was greater than 100 µM throughout. Besides, the TGI in test [9] and in test [10] was greater than 100 µM throughout.
Take `COI1NC(=O)c2ccccc21`: the TGI in test [1], in test [2], in test [3], in test [4], in test [5] and in test [6] was greater than 100 µM each time. For the same molecule, the TGI in test [8], in [9] and in test [10] was greater than 100 µM in each case.
For the molecule `C=C(C)[C@@H]1CCC2=C[C@H](OC2=O)[C@@]2(C)C[C@@H]2C2=CC(C)=C(O2)[C@H]1O`, the TGI in test [1], in test [2], in test [3], in test [7], in test [4] and in [5] was greater than 75 µM in each case. For the same molecule, the TGI in test [6], in test [8] and in test [9] was greater than 75 µM throughout.
Regarding `N#Cc1ccc(-n2c3ccccc3c3ccc4c(c32)C(=O)C=CC4=O)cc1`, the TGI in test [1] was 5.88 µM; in test [2], greater than 25.4 µM; in test [3], greater than 58.7 µM; in test [7], 2.72 µM; in test [5] it was 53.9 µM; in test [6] it was 3.01 µM. Further, the TGI in [9] is 16.2 µM; in test [10] it was greater than 100 µM.
`COc1cc2c(cc1OCCCC(=O)Nc1ccc3ccc4cccc5ccc1c3c45)N=C[C@@H]1CCCN1C2=O`: the TGI in test [1] was greater than 83.6 µM; in test [2], greater than 100 µM; in test [3], less than 0.0245 µM; in [7], 1.63 µM; in test [4] it was 0.936 µM; in [5], 0.262 µM. Besides, the TGI in [6] was greater than 100 µM; in [10] it was 0.238 µM. Also, the GI50 was 0.0143 µM in test [2]; less than 0.0134 µM in test [3]; 0.434 µM in [7]; 0.0335 µM in test [4]; 0.0543 µM in test [5]; 0.044 µM in [6]. The GI50 in test [9] was less than 0.0167 µM; in [10], 0.042 µM.
With `CN(C)c1nc(Cl)c2c(-c3ccccc3)c(-c3ccccc3)oc2n1`, the TGI in test [1], in test [2], in test [3], in test [7], in [4] and in test [5] was greater than 100 µM each time. Besides, the TGI was greater than 100 µM in test [6], greater than 100 µM in test [9] and 60.8 µM in [10].
Take `OC(c1cc(C23CC4CC(CC(C4)C2)C3)nc2c(Cl)cc(Cl)cc12)C1CCCCN1` (stereo not drawn): the TGI in test [1] is 3.04 µM; in test [3], 3.18 µM; in [7], 3.24 µM; in [6] it was 2.94 µM; in test [8] it was 3.71 µM; in test [9] it was 3.45 µM.
`CCOC(=O)c1ccc(NCC#CCN2CCCCC2)cc1`: the TGI in test [1], in test [2], in [4], in test [5], in [6] and in test [8] was greater than 100 µM in each case. In addition, the TGI in test [9] and in test [10] was greater than 100 µM each time.
For `Cc1nc2c(=O)n(C)ncc2[nH]1`, the TGI in test [1], in test [3], in test [7], in test [4], in test [5] and in [6] was greater than 100 µM throughout. The TGI in [9] and in test [10] was greater than 100 µM throughout.
For `CCC(C#N)NCc1cccc(CNC(C#N)CC)c1` (stereo not drawn), the TGI in test [1], in test [2], in [3], in test [7], in test [4] and in test [5] was greater than 100 µM throughout. Besides, the TGI in test [6], in test [8] and in test [9] was greater than 100 µM throughout.
